Measurements from US9302999B2, “Substituted triazoles as herbicides” (E. I. DU PONT DE NEMOURS AND COMPANY, priority 2012, dated 2016).

Tests used:
Format in all cases: in vivo
Settings in all cases: Preemergence
[1] = tested on: foxtail, giant (giant foxtail, Setaria faberii); assay: Test F pre-/postemergence: foxtail, giant
How it was run: (§1)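 Preemergence treatment of seeds sown in silt loam soil, and postemergence treatment of plants 2–18 cm tall (1- to 4-leaf stage), with compounds in non-phytotoxic solvent plus surfactant. Greenhouse 14–21 days, then visual rating versus controls on 0–100 scale (100 = complete control).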

[2] = tested on: dayflower, VA (Virginia (VA) dayflower, Commelina virginica); assay: Test F pre-/postemergence: dayflower, VA
Excerpt: (§2) Seeds of plant species selected from corn (Zea mays), soybean (Glycine max), velvetleaf (Abutilon theophrasti), lambsquarters (Chenopodium album), poinsettia, wild (wild poinsettia, Euphorbia heterophylla), pigweed, palmer (palmer pigweed, Amaranthus palmeri), waterhemp (common waterhemp, Amaranthus rudis), surinam grass (Brachiaria decumbens), crabgrass, Brazil (Brazilian crabgrass, Digitaria horizontalis), panicum, fall (fall panicum Panicum dichotomiflorum), crabgrass, large (large crabgrass, Digitaria sanguinalis), foxtail, giant (giant foxtail, Setaria faberii), foxtail, green (green foxtail Setaria viridis), goosegrass (Eleusine indica), ragweed (common ragweed, Ambrosia elatior), barnyardgrass (Echinochloa crus-galli), sandbur (southern sandbur, Cenchrus echinatus), arrowleaf sida (Sida rhombifolia), ryegrass, Italian (Italian ryegrass, Lolium multiflorum), dayflower, VA (Virginia (VA) dayflower, Commelina virginica), field bindweed (Convolvulus arvensis), cocklebur (common cocklebur, Xanthium strumarium), morningglory (Ipomoea coccinea), nightshade (eastern black nightshade, Solanum ptycanthum), kochia (Kochia scoparia), nutsedge, yellow (yellow nutsedge, Cyperus esculentus), johnsongrass (Sorghum halepense), smartweed (ladysthumb smartweed, Polygonum persicaria), and beggarticks (hairy beggarticks, Bidens pilosa), were planted into a silt loam soil and treated preemergence with test chemicals formulated in a non-phytotoxic solvent mixture which included a surfactant. At the same time, plants selected from these crop and weed species and also pigweed (Amaranthus retroflexus), waterhemp_RES1 (ALS/Triazine resistant common waterhemp, Amaranthus rudis) and waterhemp_RES2 (ALS/HPPD resistant common waterhemp, Amaranthus rudis) were planted in pots containing a planting medium comprising spaghnum peat moss, vermiculite, wetting agent and starter nutrients treated with postemergence applications of some of the test chemicals formulated in the same manner. Plants ranged in height from 2 to 18 cm for postemergence treatments (1- to 4-leaf stage).
(§3) Treated plants and controls were maintained in a greenhouse for 14 to 21 days, after which time all species were compared to controls and visually evaluated. Plant response ratings, summarized in Table E, are based on a scale of 0 to 100 where 0 is no effect and 100 is complete control. A dash (-) response means no test result.

[3] = tested on: barnyardgrass (Echinochloa crus-galli); assay: Test F pre-/postemergence: barnyardgrass
How it was run: as §1

[4] = tested on: foxtail, green (green foxtail Setaria viridis); assay: Test F pre-/postemergence: foxtail, green
Excerpt: as §2, §3

[5] = tested on: panicum, fall (fall panicum Panicum dichotomiflorum); assay: Test F pre-/postemergence: panicum, fall
How it was run: as §1

[6] = 16 g ai/ha, scale 0 to 100 (0 no effect, 100 complete control)
[7] = 31 g ai/ha, scale 0 to 100 (0 no effect, 100 complete control)

With CCCc1nn(-c2ccc(F)cc2)nc1Cc1ccnc(C(F)(F)F)c1 [Compound 153] the “Plant response rating, Foxtail, Giant” value [1, 6] was 40, the “Plant response rating, Foxtail, Giant” value [1, 7] was 85 and the “Plant response rating, Foxtail, Giant” value ([1]; 62 g ai/ha, scale 0 to 100) was 100. The “Plant response rating, Foxtail, Giant” value ([1]; 125 g ai/ha, scale 0 to 100) was 100, the “Plant response rating, Foxtail, Giant” value ([1]; 250 g ai/ha, scale 0 to 100) was 100 and the “Plant response rating, Dayflower, VA” value [2, 6] was 5. For the same compound, the “Plant response rating, Dayflower, VA” value [2, 7] was 10, the “Plant response rating, Dayflower, VA” value ([2]; 62 g ai/ha, scale 0 to 100) was 40 and the “Plant response rating, Dayflower, VA” value ([2]; 125 g ai/ha, scale 0 to 100) was 80. For the same compound, the “Plant response rating, Dayflower, VA” value ([2]; 250 g ai/ha, scale 0 to 100) was 95, the “Plant response rating, Barnyardgrass” value [3, 6] was 5 and the “Plant response rating, Barnyardgrass” value [3, 7] was 10. For the same compound, the “Plant response rating, Barnyardgrass” value ([3]; 62 g ai/ha, scale 0 to 100) was 10, the “Plant response rating, Barnyardgrass” value ([3]; 125 g ai/ha, scale 0 to 100) was 75 and the “Plant response rating, Barnyardgrass” value ([3]; 250 g ai/ha, scale 0 to 100) was 100. The “Plant response rating, Foxtail, Green” value [4, 6] was 50, the “Plant response rating, Foxtail, Green” value [4, 7] was 75 and the “Plant response rating, Foxtail, Green” value ([4]; 62 g ai/ha, scale 0 to 100) was 100. The “Plant response rating, Foxtail, Green” value ([4]; 125 g ai/ha, scale 0 to 100) was 100, the “Plant response rating, Foxtail, Green” value ([4]; 250 g ai/ha, scale 0 to 100) was 100 and the “Plant response rating, Panicum, Fall” value [5, 6] was 5. The “Plant response rating, Panicum, Fall” value [5, 7] was 100, the “Plant response rating, Panicum, Fall” value ([5]; 125 g ai/ha, scale 0 to 100) was 100 and the “Plant response rating, Panicum, Fall” value ([5]; 250 g ai/ha, scale 0 to 100) was 100.

With Fc1ccc(-n2nc(Cc3ccnc(C(F)(F)F)c3)c(OCC(F)(F)F)n2)cc1 [Compound 142] the “Plant response rating, Foxtail, Giant” value [1, 6] was 35, the “Plant response rating, Foxtail, Giant” value [1, 7] was 75 and the “Plant response rating, Foxtail, Giant” value ([1]; 62 g ai/ha, scale 0 to 100) was 100. The “Plant response rating, Foxtail, Giant” value ([1]; 125 g ai/ha, scale 0 to 100) was 100, the “Plant response rating, Dayflower, VA” value [2, 6] was 0 and the “Plant response rating, Dayflower, VA” value [2, 7] was 5. For the same compound, the “Plant response rating, Dayflower, VA” value ([2]; 62 g ai/ha, scale 0 to 100) was 50, the “Plant response rating, Dayflower, VA” value ([2]; 125 g ai/ha, scale 0 to 100) was 70 and the “Plant response rating, Barnyardgrass” value [3, 6] was 0. The “Plant response rating, Barnyardgrass” value [3, 7] was 5, the “Plant response rating, Barnyardgrass” value ([3]; 62 g ai/ha, scale 0 to 100) was 30 and the “Plant response rating, Barnyardgrass” value ([3]; 125 g ai/ha, scale 0 to 100) was 80. For the same compound, the “Plant response rating, Foxtail, Green” value [4, 6] was 20, the “Plant response rating, Foxtail, Green” value [4, 7] was 75 and the “Plant response rating, Foxtail, Green” value ([4]; 62 g ai/ha, scale 0 to 100) was 98. For the same compound, the “Plant response rating, Foxtail, Green” value ([4]; 125 g ai/ha, scale 0 to 100) was 100, the “Plant response rating, Panicum, Fall” value [5, 6] was 25 and the “Plant response rating, Panicum, Fall” value [5, 7] was 65. For the same compound, the “Plant response rating, Panicum, Fall” value ([5]; 125 g ai/ha, scale 0 to 100) was 100.
